Measurements taken from US11028084B2, “Selective inhibitors of gentotoxic steress-induced IKK/NF-κB pathways” (Max-Delbrück-Centrum für Molekulare Medizin in der …, priority 2016, dated 2021).

What was measured:
[1] = biological target: T1, nuclear IKKγ-PIASy-PARP1-ATM signalosome (Homo sapiens, UniProt P09874+Q13315+Q8N2W9+Q9Y6K9); assay: Nuclear PARP1-signalosome formation, co-immunoprecipitation, HepG2 cells; type: cell-based; set-up: endogenous in cells
Description: (§1) FIG. 8: (A) HepG2 cells were pre-treated with DMSO or MW01 and irradiated. Nuclear cell extracts (NE) were used for PIASy immunoprecipitation (IP). Western blot membranes were incubated with indicated antibodies. (B) Experiment as shown in (A), but with IKKγ IP. (C) Experiment as shown in (B), but done in HEK293 cells. (D) Experiment done as shown in […], but repeated in MEF cells.
(§2) Following cell lysis the protein concentration of samples was determined. For input controls, 40 μg lysate were mixed with 6×SDS-buffer and denatured by heating to 95° C. for 4 min. Approximately 1500 μg protein lysate was used for pulldown and samples volumes were equalled with lysis buffer. Lysates were precleared with 30 μl sepharose A or sepharose G beads (depending on the antibody type used for pulldown) for 30 min, and centrifuged for 5 min at 1,500×g. The supernatant was transferred to a new reaction tube. Primary antibody (2-2.5 μg) was added to the cleared lysate for immunoprecipitation overnight while rotating at 4° C. The next day 30 μl sepharose beads per sample were used for immobilisation of antibodies. Following 4 washes with IP wash buffer precipitated proteins were eluted by mixing with 3×SDS-buffer and heating to 95° C. for 4 min.

[2] = tested on: IKKγ mono-ubiquitination; assay: IKKγ mono-ubiquitination after irradiation, IKKγ immunoprecipitation, HEK293 cells; type: cell-based, human
Description: FIG. 11: (A) HEK293 cells were pre-incubated with DMSO, MW01 or ATM inhibitor KU55933 and irradiated. Lysates were subjected to SDS-PAGE/WB. The specific IKKγ S85 band (lower band) was identified by induction following irradiation and by sensitivity to ATMi and λ-phosphatase (λ-PP) treatment. The asterisk indicates a non-specific band that was neither inducible nor ATMi sensitive. (B) Experiment was done as shown in (A) using MEF cells. (C) HEK293 cells were pre-treated with DMSO or MW01, irradiated and lysed. Lysates were used to immunoprecipitate IKKγ using an IKKγ antibody.
as §2, with “Following 4 washes with IP wash buffer precipitated proteins were eluted by mixing with 3×SDS-buffer and heating to 95° C. for 4 min.” left out

[3] = tested on: p65 S536 phosphorylation; assay: p65 S536 phosphorylation after γ-IR or etoposide, SDS-PAGE/WB, U2OS cells; type: cell-based, human; settings: γ-IR
Description: FIG. 3: (A) U2OS cells were pre-treated with increasing concentrations of MW01 in duplicates in a 384 well plate. Then, cells were treated with etoposide, fixed and subjected to IF of p65. Spatial measurement of p65 cytosolic and nuclear localisation was used for calculation of p65 translocation rates. (B) U2OS cells were pre-treated with DMSO, MW01 and irradiated with γ-IR. After 90 min cells were lysed and subjected to SDS-PAGE/WB and EMSA. (C) Cells were pre-treated with different concentrations of MW01 as indicated, treated with γ-IR (C) or etoposide (D) and subjected to WB or EMSA, respectively. LDH in (C) represents the loading control.
FIG. 14: (A) U2OS cells were pre-treated with different concentrations of olaparib prior to co-treatment with etoposide. Whole cell lysis was performed after 90 min and cleared lysates were used for WB with indicated antibodies. (B) U2OS cells were pre-treated with DMSO, olaparib or the ATM inhibitor Ku55933 and co-treated with etoposide. Cells were harvested after 45 min and subjected to SDS-PAGE/WB. Membranes were stained with the indicated antibodies. The experiment of (B) was performed simultaneously to the experiments of (A) and (E) to control functionality of olaparib in inhibiting PAR chain formation. (C) Densitometrical analyses of (A) and two further independent experiments done as shown in (A). (D) U2OS cells were pre-treated with the substances as indicated prior to irradiation. After 90 min mRNA was isolated, transcribed into cDNA and was used for expression analyses of the indicated genes using quantitative real-time PCR (qRT-PCR). (E) HepG2 cells were pre-treated with the PARP inhibitors olaparib, 3-AB and EB-47 prior to γ-irradiation. […]
After transfer of proteins on PVDF membranes unspecific binding of antibodies was blocked by incubation of membranes in 5% skim milk powder in TBST buffer (or 3% BSA in TBST for phosphorylation-specific antibodies) for 1 h at RT. […] After three times of washing with TBST and once with PBS for 5 min, chemiluminescent photon emission was detected using a CCD camera system (Fusion Solo). […]

[4] = biological target: T1, nuclear IKKγ-PIASy-PARP1-ATM signalosome; assay: Nuclear PARP1-signalosome formation, IKKγ co-immunoprecipitation, HEK293 cells; type: cell-based; set-up: endogenous in cells; host or cells: HEK293
Description: as §1, §2

[5] = tested on: DNA repair mechanisms; assay: γH2AX foci per nucleus, immunofluorescence, U2OS cells; type: cell-based, human; settings: 5 μM, untreated (non-irradiated) cells, 5 hours
Description: FIG. 17: U2OS cells grown on coverslips were incubated 30 min with DMSO or MW01 (5 μM). Then, cells were γ-irradiated (5 Gy) or mock irradiated (mock IR). After 5 hours, cells were fixed and subjected to immunofluorescence staining procedure. DNA damage-indicating γH2AX foci and nuclei n≥480 nuclei per condition) were counted for the calculation of average foci per nucleus. Significance was calculated using student's t-test.
U2OS cells were grown on coverslips and incubated 30 min with DMSO or MW01 (5 μM). Then, cells were γ-irradiated (5 Gy) or mock irradiated (mock IR). After 5 hours, cells were fixed and subjected to immunofluorescence staining procedure. DNA damage-indicating γH2AX foci and nuclei (n≥480 nuclei per condition) were counted for the calculation of average foci per nucleus. Significance was calculated using student's t-test.

T1 sequence (Q9Y6K9 whole entry): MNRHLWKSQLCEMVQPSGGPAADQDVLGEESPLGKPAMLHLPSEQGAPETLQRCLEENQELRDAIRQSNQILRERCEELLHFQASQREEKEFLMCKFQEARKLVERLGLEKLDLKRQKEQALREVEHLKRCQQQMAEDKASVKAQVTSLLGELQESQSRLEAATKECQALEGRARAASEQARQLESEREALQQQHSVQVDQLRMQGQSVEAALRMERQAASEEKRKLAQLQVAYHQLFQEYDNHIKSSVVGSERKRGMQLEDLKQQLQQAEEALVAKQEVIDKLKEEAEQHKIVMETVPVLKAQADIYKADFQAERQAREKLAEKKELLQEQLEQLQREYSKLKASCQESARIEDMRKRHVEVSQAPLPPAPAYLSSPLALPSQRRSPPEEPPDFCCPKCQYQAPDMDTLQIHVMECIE
T1 sequence (Q8N2W9 2-510 limits assumed): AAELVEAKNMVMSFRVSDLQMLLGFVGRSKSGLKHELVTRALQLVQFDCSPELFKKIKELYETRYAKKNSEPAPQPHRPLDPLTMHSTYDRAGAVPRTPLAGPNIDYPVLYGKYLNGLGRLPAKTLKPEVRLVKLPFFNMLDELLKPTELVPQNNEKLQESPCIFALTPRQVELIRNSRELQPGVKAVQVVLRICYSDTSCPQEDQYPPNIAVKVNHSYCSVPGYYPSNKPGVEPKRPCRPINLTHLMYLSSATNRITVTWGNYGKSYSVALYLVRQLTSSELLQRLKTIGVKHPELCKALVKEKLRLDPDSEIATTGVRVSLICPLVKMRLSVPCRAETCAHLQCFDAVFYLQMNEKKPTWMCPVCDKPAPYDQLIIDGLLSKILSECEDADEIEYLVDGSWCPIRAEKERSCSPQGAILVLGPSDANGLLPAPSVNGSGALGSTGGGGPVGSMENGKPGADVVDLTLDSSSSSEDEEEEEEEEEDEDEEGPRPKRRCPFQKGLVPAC
T1 sequence (P09874 2-1014 limits assumed): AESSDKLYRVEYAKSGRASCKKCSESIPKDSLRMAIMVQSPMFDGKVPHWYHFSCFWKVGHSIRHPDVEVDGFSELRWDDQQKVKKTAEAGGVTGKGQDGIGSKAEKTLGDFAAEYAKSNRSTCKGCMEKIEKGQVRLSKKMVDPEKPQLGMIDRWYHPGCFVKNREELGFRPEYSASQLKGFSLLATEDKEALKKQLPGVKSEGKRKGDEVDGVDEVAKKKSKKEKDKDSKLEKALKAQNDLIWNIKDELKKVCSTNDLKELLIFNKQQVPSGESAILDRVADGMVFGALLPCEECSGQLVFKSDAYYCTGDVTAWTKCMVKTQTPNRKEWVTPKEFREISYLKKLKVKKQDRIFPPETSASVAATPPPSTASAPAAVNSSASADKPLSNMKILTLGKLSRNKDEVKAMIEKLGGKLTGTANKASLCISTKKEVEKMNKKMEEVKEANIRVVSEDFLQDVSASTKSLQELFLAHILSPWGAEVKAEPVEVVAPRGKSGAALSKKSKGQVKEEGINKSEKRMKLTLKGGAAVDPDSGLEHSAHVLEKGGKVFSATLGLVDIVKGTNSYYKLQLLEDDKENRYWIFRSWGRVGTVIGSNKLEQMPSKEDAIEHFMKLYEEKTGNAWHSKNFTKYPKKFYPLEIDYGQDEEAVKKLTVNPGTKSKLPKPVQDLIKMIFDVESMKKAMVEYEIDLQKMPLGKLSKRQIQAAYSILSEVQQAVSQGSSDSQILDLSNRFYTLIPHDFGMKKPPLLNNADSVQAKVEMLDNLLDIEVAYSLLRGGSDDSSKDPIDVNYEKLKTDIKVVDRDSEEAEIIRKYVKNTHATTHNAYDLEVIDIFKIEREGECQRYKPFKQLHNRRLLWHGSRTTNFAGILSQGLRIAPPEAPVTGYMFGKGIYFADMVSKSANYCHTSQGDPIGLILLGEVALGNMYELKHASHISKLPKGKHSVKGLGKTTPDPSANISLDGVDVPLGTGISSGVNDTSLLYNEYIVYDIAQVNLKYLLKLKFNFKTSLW
T1 sequence (Q13315 2-3056 limits assumed): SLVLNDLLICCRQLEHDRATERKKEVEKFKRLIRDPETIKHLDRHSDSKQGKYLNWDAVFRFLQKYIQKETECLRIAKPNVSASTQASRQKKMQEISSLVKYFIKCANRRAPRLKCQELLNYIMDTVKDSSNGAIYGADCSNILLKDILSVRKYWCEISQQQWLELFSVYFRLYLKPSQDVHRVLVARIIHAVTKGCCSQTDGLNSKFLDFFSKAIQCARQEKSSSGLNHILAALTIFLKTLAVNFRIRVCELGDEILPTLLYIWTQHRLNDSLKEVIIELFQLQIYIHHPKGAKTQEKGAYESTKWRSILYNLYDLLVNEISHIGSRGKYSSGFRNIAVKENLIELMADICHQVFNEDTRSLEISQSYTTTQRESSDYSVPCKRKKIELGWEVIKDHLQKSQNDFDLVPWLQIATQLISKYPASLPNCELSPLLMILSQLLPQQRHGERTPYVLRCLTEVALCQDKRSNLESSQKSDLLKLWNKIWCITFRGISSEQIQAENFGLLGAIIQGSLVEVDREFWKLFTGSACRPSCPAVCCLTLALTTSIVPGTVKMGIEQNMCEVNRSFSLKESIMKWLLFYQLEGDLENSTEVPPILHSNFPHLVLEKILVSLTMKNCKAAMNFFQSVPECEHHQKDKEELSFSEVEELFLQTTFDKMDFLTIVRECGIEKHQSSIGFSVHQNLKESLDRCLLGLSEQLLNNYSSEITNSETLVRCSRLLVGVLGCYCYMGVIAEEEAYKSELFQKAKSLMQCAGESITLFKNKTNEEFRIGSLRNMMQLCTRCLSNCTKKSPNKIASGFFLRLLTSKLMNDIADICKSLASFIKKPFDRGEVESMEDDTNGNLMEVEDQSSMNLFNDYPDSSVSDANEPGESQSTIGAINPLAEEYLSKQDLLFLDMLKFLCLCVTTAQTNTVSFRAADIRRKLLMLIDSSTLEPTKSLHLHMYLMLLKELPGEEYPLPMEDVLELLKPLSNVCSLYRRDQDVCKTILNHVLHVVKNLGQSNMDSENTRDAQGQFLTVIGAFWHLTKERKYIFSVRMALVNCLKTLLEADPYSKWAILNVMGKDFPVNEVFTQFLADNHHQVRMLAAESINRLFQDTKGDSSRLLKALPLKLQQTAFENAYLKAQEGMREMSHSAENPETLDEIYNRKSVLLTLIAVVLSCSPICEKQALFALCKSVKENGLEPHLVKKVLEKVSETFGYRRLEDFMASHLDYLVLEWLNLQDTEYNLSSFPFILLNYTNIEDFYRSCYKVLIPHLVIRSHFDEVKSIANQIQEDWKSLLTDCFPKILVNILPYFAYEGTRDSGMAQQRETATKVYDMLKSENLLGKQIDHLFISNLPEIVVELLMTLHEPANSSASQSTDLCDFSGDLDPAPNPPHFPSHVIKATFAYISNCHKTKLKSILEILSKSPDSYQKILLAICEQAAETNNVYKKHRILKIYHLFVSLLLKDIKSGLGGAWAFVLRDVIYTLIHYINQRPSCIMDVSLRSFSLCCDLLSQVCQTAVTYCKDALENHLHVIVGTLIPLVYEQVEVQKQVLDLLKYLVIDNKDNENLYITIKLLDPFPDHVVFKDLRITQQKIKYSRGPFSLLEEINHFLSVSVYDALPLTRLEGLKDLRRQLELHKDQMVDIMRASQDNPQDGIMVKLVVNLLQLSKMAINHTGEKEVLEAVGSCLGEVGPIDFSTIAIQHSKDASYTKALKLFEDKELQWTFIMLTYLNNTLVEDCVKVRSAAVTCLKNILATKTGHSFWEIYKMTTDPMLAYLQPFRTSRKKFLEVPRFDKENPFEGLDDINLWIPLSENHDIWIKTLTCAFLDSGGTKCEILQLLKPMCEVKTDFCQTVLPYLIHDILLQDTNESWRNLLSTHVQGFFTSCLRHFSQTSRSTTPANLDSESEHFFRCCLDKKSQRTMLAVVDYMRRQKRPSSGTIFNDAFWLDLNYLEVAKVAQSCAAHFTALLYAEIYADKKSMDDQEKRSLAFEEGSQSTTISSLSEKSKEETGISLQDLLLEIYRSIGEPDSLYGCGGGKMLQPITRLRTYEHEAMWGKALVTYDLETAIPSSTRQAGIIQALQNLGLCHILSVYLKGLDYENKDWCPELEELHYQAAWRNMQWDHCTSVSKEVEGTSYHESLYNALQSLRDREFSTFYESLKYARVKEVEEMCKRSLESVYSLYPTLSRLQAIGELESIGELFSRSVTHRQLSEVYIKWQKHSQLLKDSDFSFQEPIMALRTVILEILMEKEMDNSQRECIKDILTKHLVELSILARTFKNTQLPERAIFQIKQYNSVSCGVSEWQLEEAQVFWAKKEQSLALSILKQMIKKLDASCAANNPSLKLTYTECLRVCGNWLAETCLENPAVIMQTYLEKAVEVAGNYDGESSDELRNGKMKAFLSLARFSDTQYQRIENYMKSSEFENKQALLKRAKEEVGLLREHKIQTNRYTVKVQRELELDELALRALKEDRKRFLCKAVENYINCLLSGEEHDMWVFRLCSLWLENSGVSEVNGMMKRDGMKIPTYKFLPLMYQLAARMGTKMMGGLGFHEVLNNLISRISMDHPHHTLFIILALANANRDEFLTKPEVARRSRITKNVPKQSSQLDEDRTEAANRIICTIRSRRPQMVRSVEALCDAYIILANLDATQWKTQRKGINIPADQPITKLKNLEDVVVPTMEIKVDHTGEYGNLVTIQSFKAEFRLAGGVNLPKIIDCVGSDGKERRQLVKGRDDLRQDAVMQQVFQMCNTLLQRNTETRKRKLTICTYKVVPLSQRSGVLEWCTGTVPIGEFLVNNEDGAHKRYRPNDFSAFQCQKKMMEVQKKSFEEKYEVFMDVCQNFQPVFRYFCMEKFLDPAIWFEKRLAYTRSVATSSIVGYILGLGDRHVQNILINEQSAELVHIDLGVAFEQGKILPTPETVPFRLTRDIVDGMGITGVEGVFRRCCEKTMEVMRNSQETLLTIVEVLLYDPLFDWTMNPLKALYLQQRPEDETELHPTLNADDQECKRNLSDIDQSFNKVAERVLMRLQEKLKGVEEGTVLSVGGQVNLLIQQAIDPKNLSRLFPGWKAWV

With `COc1ccc2c(c1OC)c(=O)n1c3ccc(O)cc3c3ccnc2c31` [MW01, 12-hydroxy-6,7-dimethoxy-8H-benzo[c]indolo[3,2,1-ij][1,5]naphthyridin-8-one] the “co-immunoprecipitation of PARP1 with IKKγ” value ([1]; HepG2, IKKγ IP) was “not co-immunoprecipitated”, the “γ-irradiation-induced Co-IP of phosphorylated ATM-51981 species with PIASy” value ([1]; HepG2 nuclear extracts, PIASy IP) was “lost after pre-treatment with MW01” and the IKKγ mono-ubiquitination [2] was “abolishment”. The “p65 S536 phosphorylation following γ-IR” value [3] was “concentration dependent inhibition of p65 S536 phosphorylation”, the “Co-IP of PARP-1 with IKKγ” value ([4]; HEK293, data not shown) was “abrogated Co-IP of PARP-1 with IKKγ” and the “IKKγ-PIASy-interaction (PIASy co-immunoprecipitation with IKKγ)” value ([4]; HEK293, γ-irradiation) was “the interaction was abolished”. The “γH2AX foci per cell” value [5] was “significant increase”.
